Assay results: PubChem BioAssay (NCI)
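Each compound was tested at five concentrations against cells in 96-well plates for 48 hours. TGI: concentration producing complete growth inhibition.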

How the values were obtained:
Assay in all cases: NCI tumour cell line growth inhibition, 48 h
SK-OV-3 ovarian = test system: SK-OV-3 ovarian
HT29 colon = test system: HT29 colon
SF-539 CNS = test system: SF-539 CNS
BT-549 breast = test system: BT-549 breast
HL-60(TB) leukemia = test system: HL-60(TB) leukemia
RPMI-8226 leukemia = test system: RPMI-8226 leukemia
A549 NSCLC = test system: A549 NSCLC
M14 melanoma = test system: M14 melanoma
EKVX NSCLC = test system: EKVX NSCLC
ACHN renal = test system: ACHN renal
HCT-116 colon = test system: HCT-116 colon
NCI-H522 lung = test system: NCI-H522 lung
UO-31 renal = test system: UO-31 renal
CCRF-CEM leukemia = test system: CCRF-CEM leukemia
MDA-MB-231 breast = test system: MDA-MB-231 breast
MDA-MB-435 = test system: MDA-MB-435
NCI-H23 lung = test system: NCI-H23 lung
UACC-62 melanoma = test system: UACC-62 melanoma
NCI/ADR-RES ovarian = test system: NCI/ADR-RES ovarian
OVCAR-3 ovarian = test system: OVCAR-3 ovarian
OVCAR-5 ovarian = test system: OVCAR-5 ovarian
TK-10 renal = test system: TK-10 renal
SK-MEL-5 melanoma = test system: SK-MEL-5 melanoma
K-562 leukemia = test system: K-562 leukemia
HOP-92 NSCLC = test system: HOP-92 NSCLC
RXF 393 renal = test system: RXF 393 renal
SK-MEL-28 melanoma = test system: SK-MEL-28 melanoma
NCI-H460 lung = test system: NCI-H460 lung
786-0 renal = test system: 786-0 renal
MCF7 breast = test system: MCF7 breast
HS 578T breast = test system: HS 578T breast
SF-268 CNS = test system: SF-268 CNS
SNB-75 CNS = test system: SNB-75 CNS
MDA-N = test system: MDA-N
HCT-15 colon = test system: HCT-15 colon
T-47D breast = test system: T-47D breast
LOX IMVI melanoma = test system: LOX IMVI melanoma
SW-620 colon = test system: SW-620 colon
SNB-19 CNS = test system: SNB-19 CNS
DU-145 prostate = test system: DU-145 prostate
PC-3 prostate = test system: PC-3 prostate
HOP-62 NSCLC = test system: HOP-62 NSCLC
COLO 205 colon = test system: COLO 205 colon
OVCAR-8 ovarian = test system: OVCAR-8 ovarian
KM12 colon = test system: KM12 colon
HCC-2998 colon = test system: HCC-2998 colon
SN12C renal = test system: SN12C renal
SF-295 CNS = test system: SF-295 CNS
SR leukemia = test system: SR leukemia
U251 CNS = test system: U251 CNS
UACC-257 melanoma = test system: UACC-257 melanoma
CAKI-1 renal = test system: CAKI-1 renal

## OC(Cc1cccc2ccccc12)CN1CCC(c2ccccc2)CC1 (configuration not stated)
SK-OV-3 ovarian
  TGI: 31.3 µM
HT29 colon
  TGI: 25.8 µM
SF-539 CNS
  TGI: 31.1 µM
BT-549 breast
  TGI: 31.3 µM
HL-60(TB) leukemia
  TGI: 41.2 µM
RPMI-8226 leukemia
  TGI: 31.8 µM
A549 NSCLC
  TGI: 29.9 µM
M14 melanoma
  TGI: 28.7 µM
EKVX NSCLC
  TGI: 27.1 µM
ACHN renal
  TGI: 31.7 µM
HCT-116 colon
  TGI: 28.7 µM
NCI-H522 lung
  TGI: 21.9 µM
UO-31 renal
  TGI: 0.176 µM
CCRF-CEM leukemia
  TGI: 62.6 µM
MDA-MB-231 breast
  TGI: 28.4 µM
MDA-MB-435
  TGI: 28.3 µM
NCI-H23 lung
  TGI: 30.8 µM
UACC-62 melanoma
  TGI: 28.9 µM
NCI/ADR-RES ovarian
  TGI: 28.5 µM
OVCAR-3 ovarian
  TGI: 30.5 µM
OVCAR-5 ovarian
  TGI: 27.7 µM
TK-10 renal
  TGI: 28.1 µM
SK-MEL-5 melanoma
  TGI: 24.4 µM
K-562 leukemia
  TGI: 38.1 µM
HOP-92 NSCLC
  TGI: 27.4 µM
RXF 393 renal
  TGI: 23 µM
SK-MEL-28 melanoma
  TGI: 26.8 µM
NCI-H460 lung
  TGI: 28.4 µM
786-0 renal
  TGI: 28.3 µM
MCF7 breast
  TGI: 32.7 µM
HS 578T breast
  TGI: 32.4 µM
SF-268 CNS
  TGI: 28.2 µM
SNB-75 CNS
  TGI: 25.3 µM
MDA-N
  TGI: 27.3 µM
HCT-15 colon
  TGI: 30.4 µM
T-47D breast
  TGI: 40.6 µM
LOX IMVI melanoma
  TGI: 29.5 µM
SW-620 colon
  TGI: 29.9 µM
SNB-19 CNS
  TGI: 26.3 µM
DU-145 prostate
  TGI: 31.9 µM
PC-3 prostate
  TGI: 30.5 µM
HOP-62 NSCLC
  TGI: 30.2 µM
COLO 205 colon
  TGI: 25.6 µM
OVCAR-8 ovarian
  TGI: 32 µM
KM12 colon
  TGI: 33.7 µM
HCC-2998 colon
  TGI: 10.8 µM
SN12C renal
  TGI: 30.6 µM
SF-295 CNS
  TGI: 27.9 µM
SR leukemia
  TGI: 27.4 µM
U251 CNS
  TGI: 26.2 µM
UACC-257 melanoma
  TGI: 18.8 µM
CAKI-1 renal
  TGI: 24.5 µM
